Test results: PubChem BioAssay (NCI)
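At the GI50, growth is halved. TGI is the concentration that stops growth completely.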

Assays:
Assay in all cases: NCI anticancer screen, dose series, 384-well format
ACHN renal = test system: ACHN renal
SF-295 CNS = test system: SF-295 CNS
SF-539 CNS = test system: SF-539 CNS
LOX IMVI melanoma = test system: LOX IMVI melanoma
HS 578T breast = test system: HS 578T breast
NCI-H322M lung = test system: NCI-H322M lung
SW-620 colon = test system: SW-620 colon
MDA-MB-435 melanoma = test system: MDA-MB-435 melanoma
UACC-257 melanoma = test system: UACC-257 melanoma
RPMI-8226 leukemia = test system: RPMI-8226 leukemia
KM12 colon = test system: KM12 colon
M14 melanoma = test system: M14 melanoma
NCI/ADR-RES ovarian = test system: NCI/ADR-RES ovarian
SK-MEL-2 melanoma = test system: SK-MEL-2 melanoma
HCT-15 colon = test system: HCT-15 colon
MCF7 breast = test system: MCF7 breast
TK-10 renal = test system: TK-10 renal
MDA-MB-231 breast = test system: MDA-MB-231 breast
MDA-MB-468 breast = test system: MDA-MB-468 breast
PC-3 prostate = test system: PC-3 prostate
CCRF-CEM leukemia = test system: CCRF-CEM leukemia
MALME-3M melanoma = test system: MALME-3M melanoma
HCT-116 colon = test system: HCT-116 colon
BT-549 breast = test system: BT-549 breast
HL-60(TB) leukemia = test system: HL-60(TB) leukemia
CAKI-1 renal = test system: CAKI-1 renal
NCI-H23 lung = test system: NCI-H23 lung
MOLT-4 leukemia = test system: MOLT-4 leukemia
DU-145 prostate = test system: DU-145 prostate
OVCAR-5 ovarian = test system: OVCAR-5 ovarian
OVCAR-3 ovarian = test system: OVCAR-3 ovarian
NCI-H460 NSCLC = test system: NCI-H460 NSCLC
HOP-62 NSCLC = test system: HOP-62 NSCLC
A549 NSCLC = test system: A549 NSCLC
SF-268 CNS = test system: SF-268 CNS
SNB-19 CNS = test system: SNB-19 CNS
NCI-H522 lung = test system: NCI-H522 lung
COLO 205 colon = test system: COLO 205 colon
OVCAR-4 ovarian = test system: OVCAR-4 ovarian
SN12C renal = test system: SN12C renal
UACC-62 melanoma = test system: UACC-62 melanoma
NCI-H226 lung = test system: NCI-H226 lung
SK-MEL-5 melanoma = test system: SK-MEL-5 melanoma
T-47D breast = test system: T-47D breast
SNB-75 CNS = test system: SNB-75 CNS
U251 glioblastoma = test system: U251 glioblastoma
EKVX NSCLC = test system: EKVX NSCLC
HCC-2998 colon = test system: HCC-2998 colon
IGROV1 ovarian = test system: IGROV1 ovarian
A498 renal = test system: A498 renal
K-562 leukemia = test system: K-562 leukemia
RXF 393 renal = test system: RXF 393 renal
786-0 renal = test system: 786-0 renal
HOP-92 NSCLC = test system: HOP-92 NSCLC
UO-31 renal = test system: UO-31 renal
SK-OV-3 ovarian = test system: SK-OV-3 ovarian
SR leukemia = test system: SR leukemia
SK-MEL-28 melanoma = test system: SK-MEL-28 melanoma
HT29 colon = test system: HT29 colon

CN1CCN(c2ccc3nc(-c4c5cccccc-5[nH]c4=O)[nH]c3c2)CC1
GI50 (ACHN renal): 4.63 µM | TGI (ACHN renal): 16.8 µM | GI50 (SF-295 CNS): 12.2 µM | TGI (SF-295 CNS): 32 µM | GI50 (SF-539 CNS): 3.66 µM | TGI (SF-539 CNS): 13.2 µM | GI50 (LOX IMVI melanoma): 10.7 µM | TGI (LOX IMVI melanoma): 22.7 µM | GI50 (HS 578T breast): 4.73 µM | TGI (HS 578T breast): 18.4 µM | GI50 (NCI-H322M lung): 10.4 µM | TGI (NCI-H322M lung): 33.6 µM | GI50 (SW-620 colon): 6.59 µM | TGI (SW-620 colon): 24.9 µM | GI50 (MDA-MB-435 melanoma): 11.9 µM | TGI (MDA-MB-435 melanoma): 31.9 µM | GI50 (UACC-257 melanoma): 9.05 µM | TGI (UACC-257 melanoma): 21.4 µM | GI50 (RPMI-8226 leukemia): 10 µM | TGI (RPMI-8226 leukemia): 21.7 µM | GI50 (KM12 colon): 0.371 µM | TGI (KM12 colon): 10.7 µM | GI50 (M14 melanoma): 9.46 µM | TGI (M14 melanoma): 21.4 µM | GI50 (NCI/ADR-RES ovarian): 16.7 µM | TGI (NCI/ADR-RES ovarian): 47.1 µM | GI50 (SK-MEL-2 melanoma): 28.6 µM | TGI (SK-MEL-2 melanoma): 44.4 µM | GI50 (HCT-15 colon): 7.04 µM | TGI (HCT-15 colon): 26.4 µM | GI50 (MCF7 breast): 7.26 µM | TGI (MCF7 breast): 21.3 µM | GI50 (TK-10 renal): 4.51 µM | TGI (TK-10 renal): 19.3 µM | GI50 (MDA-MB-231 breast): 5.78 µM | TGI (MDA-MB-231 breast): 22.1 µM | GI50 (MDA-MB-468 breast): 5.61 µM | TGI (MDA-MB-468 breast): 21 µM | GI50 (PC-3 prostate): 6.81 µM | TGI (PC-3 prostate): 25.3 µM | GI50 (CCRF-CEM leukemia): 3.47 µM | TGI (CCRF-CEM leukemia): 10.7 µM | GI50 (MALME-3M melanoma): 11 µM | TGI (MALME-3M melanoma): 23.1 µM | GI50 (HCT-116 colon): 12.1 µM | TGI (HCT-116 colon): 25.3 µM | GI50 (BT-549 breast): 4.48 µM | TGI (BT-549 breast): 14.6 µM | GI50 (HL-60(TB) leukemia): 3.83 µM | TGI (HL-60(TB) leukemia): 12.4 µM | GI50 (CAKI-1 renal): 5.23 µM | TGI (CAKI-1 renal): 18.2 µM | GI50 (NCI-H23 lung): 7.46 µM | TGI (NCI-H23 lung): 26.8 µM | GI50 (MOLT-4 leukemia): 1.8 µM | TGI (MOLT-4 leukemia): 3.2 µM | GI50 (DU-145 prostate): 6.01 µM | TGI (DU-145 prostate): 26.7 µM | GI50 (OVCAR-5 ovarian): 10.5 µM | TGI (OVCAR-5 ovarian): 33.4 µM | GI50 (OVCAR-3 ovarian): 12.3 µM | TGI (OVCAR-3 ovarian): 28.2 µM | GI50 (NCI-H460 NSCLC): 3.65 µM | TGI (NCI-H460 NSCLC): 13.8 µM | GI50 (HOP-62 NSCLC): 4.43 µM | TGI (HOP-62 NSCLC): 20.9 µM | GI50 (A549 NSCLC): 6.49 µM | TGI (A549 NSCLC): 38.1 µM | GI50 (SF-268 CNS): 10.3 µM | TGI (SF-268 CNS): 31.8 µM | GI50 (SNB-19 CNS): 10.3 µM | TGI (SNB-19 CNS): 39.2 µM | GI50 (NCI-H522 lung): 9.06 µM | TGI (NCI-H522 lung): 29.6 µM | GI50 (COLO 205 colon): 5.27 µM | TGI (COLO 205 colon): 17.7 µM | GI50 (OVCAR-4 ovarian): 10.3 µM | TGI (OVCAR-4 ovarian): 38.6 µM | GI50 (SN12C renal): 3.39 µM | TGI (SN12C renal): 17.8 µM | GI50 (UACC-62 melanoma): 8.99 µM | TGI (UACC-62 melanoma): 21.2 µM | GI50 (NCI-H226 lung): 4.07 µM | TGI (NCI-H226 lung): 18 µM | GI50 (SK-MEL-5 melanoma): 8.18 µM | TGI (SK-MEL-5 melanoma): 21 µM | GI50 (T-47D breast): 16.9 µM | TGI (T-47D breast): 37.9 µM | GI50 (SNB-75 CNS): 3.71 µM | TGI (SNB-75 CNS): 17.6 µM | GI50 (U251 glioblastoma): 5.62 µM | TGI (U251 glioblastoma): 22.2 µM | GI50 (EKVX NSCLC): 10.1 µM | TGI (EKVX NSCLC): 33.3 µM | GI50 (HCC-2998 colon): 7.05 µM | TGI (HCC-2998 colon): 29.1 µM | GI50 (IGROV1 ovarian): 3.84 µM | TGI (IGROV1 ovarian): 15.6 µM | GI50 (A498 renal): 12.7 µM | TGI (A498 renal): 26.3 µM | GI50 (K-562 leukemia): 4.85 µM | TGI (K-562 leukemia): 16.7 µM | GI50 (RXF 393 renal): 2.7 µM | TGI (RXF 393 renal): 8.68 µM | GI50 ([…]-0 renal): 7.07 µM | TGI (786-0 renal): 28.1 µM | GI50 (HOP-92 NSCLC): 3.99 µM | TGI (HOP-92 NSCLC): 16.7 µM | GI50 (UO-31 renal): 6.3 µM | TGI (UO-31 renal): 19.2 µM | GI50 (SK-OV-3 ovarian): 5.76 µM | TGI (SK-OV-3 ovarian): 23.7 µM | GI50 (SR leukemia): 2.17 µM | TGI (SR leukemia): 4.45 µM | GI50 (SK-MEL-28 melanoma): 15.9 µM | TGI (SK-MEL-28 melanoma): 35 µM | GI50 (HT29 colon): 6.92 µM | TGI (HT29 colon): 23.9 µM
